# Source: patent EP1002537A1, “Use of melarsoprol for the manufacture of a medicament for treating B-cell lymphoproliferative diseases, such as multiple myeloma” (ASSISTANCE PUBLIQUE, HOPITAUX DE PARIS, priority 1998, dated 2000)
# Legend:
# [1] = tested on: secreting multiple myeloma; experiment: Bi-central, open, non-comparative study in patients with secreting multiple myeloma; assay type: in vivo; settings: IV 1mg/kg first day, then 2mg/kg daily, not longer than 56 days
# Experimental: A bi-central, open, non-comparative study of melarsoprol in patients suffering from secreting multiple myeloma was carried out.
# Patients with secreting multiple myeloma included in the study had been pretreated with and were unresponsive to a minimum of 3 VAD (vincristine-adriamycine-dexamethasone) or VAMP (vincristine-adriamycine-methylprednisolone) chemotherapy regimens.
# Patients are treated daily with co-administration of anti-convulsive and B1 vitamin for 56 days if allowed by toxicity.
# At the first day, the IV solution of melarsoprol (1mg/kg) is administered in 3 intravenous injections.
# The IV solution of melarsoprol (2mg/kg) is then administered daily and for a time period not longer than 56 days in the same manner. […]
# NCI = experiment: Cell survival by trypan blue exclusion; assay type: cell-based, human; settings: after 48 hours, 10-6 mol/L melarsoprol
# Experimental: (§1) The human myeloma cell lines were purchased from DMS (Braunschweig, Germany) (NCI H929 and LP1) and from American Type Culture Collections (Rockville, MD) (OPM2 and U266). NCI, OPM2, U266 (and all studied non plasmacytic cell lines) were cultured in RPMI 1640 supplemented with 1% penicillin/streptomycin, 1 mmol/L L-glutamine and 10% heat-inactivated fetal calf serum at 37°C, 5% CO2 in air. LP1 cells were cultured in similar conditions, in Iscove's medium.
# (§2) Cells were incubates with or without 10^-5 to 10^-8 mol/L melarsoprol up to 96 hours, without any adjustment after culture initiation. Cell number and viability were determined by trypan blue exclusion. Morphologic analysis was performed using Wright-Giema and DAPI (4'-6-diamidino-2-phenylindole) staining on cytocentrifuge preparations. For proliferation assays, aliquots of 2x10^4 cells in triplicate were incubated in 96-well plates and 3H-thymidine (3H-TdR) (1 µCi) was added for the final 8 hours of the culture period. Cells were harvested onto glass filter and ^3H-TdR incorporation was counted on a liquid scintillation counter.
# (§3) Treatment of plasma cell lines with melarsoprol led to a dose- and time dependent inhibition of cell survival, as determined using trypan blue exclusion. After 48 hours, in the presence of 10-6 mol/L melarsoprol , percentage of trypan blue negative cells were 15 ± 7.2, 56 ± 11, 62 ± 5 8, and 81 ± 6.8% in NCI, OPM2, U266 and LP1 cells, respectively. Cell death was mainly due to apoptosis, as shown by the characteristic morphological changes in nuclei as well as by the TUNEL method.
# LP1 cells [2] = experiment: Cell survival by trypan blue exclusion; assay type: cell-based, human; settings: LP1, after 48 hours, 10-6 mol/L melarsoprol
# Experimental: as §1, §2, §3
# OPM2 = experiment: Cell survival by trypan blue exclusion; assay type: cell-based, human; settings: OPM2, after 48 hours, 10-6 mol/L melarsoprol
# Experimental: as §1, §2, §3
# [3] = SCID mice transplanted with human myeloma cells: toxicity and arsenic amounts; assay type: in vivo; settings: any studied organ, especially the liver
# Experimental: (§4) SCID mice were irradiated before the intra-peritoneal (IP) injection of 3 to 5*10^6 plasma cells purified from peripheral blood of patients with plasma cell leukemia. Engrafment was assessed by bi-monthly measurement of the human monoclonal immunoglobulin (HuMIg) concentration in mouse serum, using an ELISA.
# Arsenic amounts in mouse serum and tissues were in the expected 〈〈 pharmacological 〉〉 range.
# NCI cells [4] = experiment: FACS analysis after annexin-V and propidium iodide staining; assay type: cell-based, human; settings: 10^-6 mol/L
# Experimental: (§5) Direction of phosphatidylserine on the outer leaflet of apoptotic cells was performed using Annexin-V-FLUOS (Boehringer Mannheim, Germany) and propidium iodide (PI) according to the manufacturer's recommendations. Expression of cell surface CD38, CD138 (BB-4° and CD15 antigens was studied using corresponding fluorescein isothiocyanate (FITC) or phycierythrin conjugated antibodies that were purchased from Diaclone (Besançon, France) and Becton Dickinson (San Jose, Ca.). Flow cytometry was performed with a FACSean apparatus (Beckton Dickinson).
# (§6) FACS analysis of NCI and U266 cells after staining with fluorescein-labelled annexin-V and propidium iodide was performed to detect the translocation of phosphatidylserine from the inner part of plasma membrane to the outer layer which accurs in the early stages of apoptosis. Before staining, cells were cultivated with medium alone) melarsoprol (10^-6 mol/L) or dexamethasone (Dex, 10^-6 mol/L) over a time period of 48 hours. […] During the same time; the number of double positive necrotic cells increased and, at 18 hours, only very few double-negative living cells were detectable. Apoptosis was moderate in cells cultured with Dex and in control culture. Annexin-positive, PI-negative apoptotic U266 cells were also observed in the presence of melarsoprol (18% of residual cells after a 18-hour culture).
# U266 cells = experiment: as above; assay type: cell-based, human; settings: 10^-6 mol/L, 18-hour culture
# Experimental: as §5, §6
# [5] = tested on: Mononuclear cells purified from peripheral blood of normal donors; experiment: Pokeweed mitogen (PWM)-induced plasma cell differentiation of normal lymphocytes; assay type: cell-based, human; settings: 10^-6 mol/L and 5 x10^-7 mol/L
# Experimental: Mononuclear blood cells of 3 normal donors were cultured in the presence of PWM (from Life Technology, Cergy Pontoise, diluted at 1/100) and melarsoprol (5 x 10^-7 or 10^-6 mol/L). Plasma cells were numerated at day 7 after immunofluorescence staining with fluorescein-conjugated antibodies directed against human Ig chains, IgM concentrations in supernatants were also measured at day 5, by ELISA, as previously described (Grillot-Courvalin C et al, Scand. J. Immunol. 23:679, 1986).
# Mononuclear cells purified from peripheral blood of normal donors were incubated with pokeweed mitogen in the presence of two different concentrations (10^-6 mol/L and 5 x10^-7 mol/L) of the organic or of the inorganic arsenical.
# human myeloma cells = experiment: SCID mice transplanted with human myeloma cells: efficacy; assay type: in vivo; settings: 30µg/g 5 days a week IP, 30 to 40 days
# Experimental: The following studies of melarsoprol conducted in SCID mice transplanted with human myeloma cells confirm in vivo the in vitro effects of the arsenical compound.
# as §4
# Mice injected with the cells from 3 different patients developed the human tumor and were treated with melarsoprol during 30 to 40 days.
# [6] = tested on: plasma-cell enriched preparations of myeloma patients; experiment: Growth (3H TdR uptake) of fresh myeloma cells; assay type: cell-based; settings: Homo sapiens; three plasma-cell preparations; read-out: IC50 (inhibition of cell growth)
# Text: (§7) Eleven patients with multiple myeloma (MM) or plasma cell leukemia (PCL) were studied after informed consent. Mononuclear cells were separated by Ficoll-Hypaque centrifugation from peripheral blood of 4 patients with PCL (including 2 with a primary PCL), from bone marrow (BM) of 6 patients with MM (including 4 at diagnosis) and from the pleural effusion of a newly diagnosed myeloma patient. Plasma cell-enriched preparations were obtained by centrifugation of mononuclear cells on a Percoll gradient, as previously described (Iwato K, et al, Blood 72:562, 1988). Plasma cell percentages were determined after intracytoplasmic staining using fluorescein-conjugated antibodies to human immunoglobulin (Ig) heavy and light chains (from Nordic, Tilburg, The Netherlands).Short-term cultures of blood and BM mononuclear cells and of plasma cell-enriched preparations were performed in RPMI 1640, in similar conditions as cell lines.
# as §2, with “For proliferation assays, aliquots of 2x10^4 cells in triplicate were incubated in 96-well plates and 3H-thymidine (3H-TdR) (1 µCi) was added for the final 8 hours of the culture period.” left out, “counter. […]” for “counter.”
# [7] = tested on: myeloid cells (CD38^low, CD15 +); experiment: FACS analysis of patients' bone marrow mononuclear cells (annexin V with CD38 or CD15); assay type: cell-based, human
# Text: as §7, §5
# (§8) To comparatively assess the effects of melarsoprol on myeloid and plasma cells, bone marrow mononuclear cells obtained from patients with newly diagnosed multiple myeloma were cultured for 5 days in the presence of 10^-6 mol/L melarsoprol. […] Indeed, in a representative study a bone marrow sample initiality containing 30% of plasma cells (CD38^higt +), 12% of the latter expressed annexin V after 2 days of culture with 10^-6 mol/L melarsoprol, whereas less than 1% of myeloid cells (CD38^low, CD15 +) were positive for the apoptosis marker. At day 5, the plasma cell number had much more decreased than the myeloid cell number and viable cells (propidium iodide negative) contained 7.8 % of CD38^higt positive cells, as compared to 22.5 % in control culture, performed with medium alone. CD15+ myelo-monocytic cell percentages were similar in arsenic-exposed cultures and in controls, with a decrease in the CD15^low+ fraction.
# [8] = tested on: plasma cells (CD38^higt +); experiment: as above; assay type: cell-based, human
# Text: as §7, §5, §8
# [9] = tested on: T, myeloid and epithelial cell lines; experiment: Comparative example: growth of other hematopoietic cell types; assay type: cell-based
# Experimental: as §1, §2
# In addition to plasma cell, other hematopoietic cell types were also studied. The inhibition of growth was marginal in T, myeloid and epithelial cell lines.
# OPM2 cells = experiment: Growth inhibition of plasma cell line (cell count and thymidine incorporation); assay type: cell-based, human
# Experimental: as §1, §2
# (§9) The growth of NCI, U266, OPM2 and LP1 plasma cell lines in medium alone or in the presence of melarsoprol (10^-5 to 10^-8 mol/L) was assessed by cell count and thymidine incorporation.
# NCI cells [10] = experiment: as above; assay type: cell-based, human
# Experimental: as §1, §2, §9
# U266 = experiment: as above; assay type: cell-based, human; settings: U266 cells
# Experimental: as §1, §2, §9
# LP1 cells [11] = experiment: as above; assay type: cell-based, human
# Experimental: as §1, §2, §9
# NCI cells [12] = experiment: DNA fragmentation by agarose gel electrophoresis of genomic DNA; assay type: cell-based, human; settings: NCI cells treated with 10^-6 mol/L
# leukemia = settings: IV daily for 3 days, repeated weekly for 3 weeks, 1 to 3,6mg/kg; cited from earlier work
# myeloma cells = experiment: Growth and survival of myeloma cells (summary statement); assay type: cell-based, human
# Text: According to the present invention, melarsoprol reduces the growth and survival of myeloma cells by triggering programmed cell death.
# This supports the clinical efficacy of the melarsoprol in patients with multiple myeloma. Indeed, melarsoprol is active at concentrations ranging from 10^-6 to 10^-8 mol/L, which correspond to the in vivo pharmacological concentrations of the drugs.
# [13] = tested on: plasma-cell enriched preparations of myeloma patients; experiment: Viability (trypan blue exclusion) of fresh myeloma cells; assay type: cell-based, human; settings: 48 hours, n=4 (40 to 77.5%); 10.5 ± 14.7% without the drug
# Text: as §7
# as §2, with “For proliferation assays, aliquots of 2x10^4 cells in triplicate were incubated in 96-well plates and 3H-thymidine (3H-TdR) (1 µCi) was added for the final 8 hours of the culture period.” left out, “counter. […]” for “counter.”
# [14] = 2 days of culture, 10^-6 mol/L, representative bone marrow sample
smiles,measurement,setting,value
"Nc1nc(N)nc(Nc2ccc([As]3SCC(CO)S3)cc2)n1 (stereo not drawn) [melarsoprol, 2-p-[(4,6-diamino-s-triazin-2-yl)amino]phenyl-4-hydroxymethyl-1,3,2-dithiarsoline]",Efficiency for treating multiple myeloma and reduced side-effects,[1],verified
same,percentage of trypan blue negative cells,NCI,15 ± 7.2%
same,percentage of trypan blue negative cells,LP1 cells [2],81 ± 6.8%
same,percentage of trypan blue negative cells,OPM2,56 ± 11%
same,toxic lesions in studied organs,[3],no evidence of toxic lesions
same,double-negative living cells,NCI cells [4]; at 18 hours,only very few
same,"apoptosis (annexin-positive, PI-negative apoptotic cells)",NCI cells [4]; time period of 48 hours,rapidly induced apoptosis
same,"Annexin-positive, PI-negative apoptotic U266 cells",U266 cells,18 % of residual cells
same,plasma cell differentiation induced by the mitogen,[5],only slightly inhibited
same,remissions,human myeloma cells; all evaluable experiment,remissions have been achieved
same,level of the HuMIg in mouse serum,human myeloma cells; undetectable in some animals,dramatic decrease
same,IC50,[6],~0.1 µM
same,"myeloid cells (CD38^low, CD15 +) positive for the apoptosis marker",[7]; [14],less than 1%
same,CD15+ myelo-monocytic cell percentages versus controls,"[7]; day 5, 10^-6 mol/L",similar
same,plasma cells (CD38^higt +) expressing annexin V,[8]; [14],12%
same,percent CD38-high plasma cells among viable cells at 1 µM,"[8]; Homo sapiens, 120 h, read-out: CD38^higt positive cells among viable cells (propidium iodide negative)",7.8%
same,inhibition of growth,[9],marginal
same,time-dependent inhibition of growth,OPM2 cells,marked time-dependent inhibition of growth
same,IC50,"OPM2 cells; Homo sapiens, OPM-2, growth inhibition",~0.1 µM
same,time-dependent inhibition of growth,NCI cells [10],marked time-dependent inhibition of growth
same,IC50,"NCI cells [10]; Homo sapiens, 72 hours, cell number and thymidine incorporation, read-out: 50% growth inhibitory concentration (IC50) (converted)",0.3 µM
same,IC50,"U266; Homo sapiens, U-266, growth inhibition",~1 µM
same,time-dependent inhibition of growth,U266,significant but less important inhibition of growth
same,IC50,"LP1 cells [11]; Homo sapiens, LP-1, LP1 cells, growth inhibition",~1 µM
same,time-dependent inhibition of growth,LP1 cells [11]; LPI cells,significant but less important inhibition of growth
same,DNA fragmentation,NCI cells [12],typical DNA ladders
same,CNS toxicity,leukemia,excessive CNS (central nervous system) toxicity
same,anti-leukemic activity,leukemia,no major anti-leukemic activity
same,active concentrations,myeloma cells,10^-6 to 10^-8 mol/L
same,mean decline in cell viability,[13],52.5 ± 17.3%
